Assay results taken from patent US8501813B2, “γ-secretase inhibitor” (Kabushiki Kaisha Yakult Honsha, priority 2007, dated 2013).
Like-named read-outs stand apart in the source and are kept apart here.

Target: γ-secretase (Homo sapiens, UniProt P49768)
Test: Aβ secretion by C99 cells (HEK293 stably expressing APP-C99), γ-secretase inhibitory effect, Aβ ELISA of culture supernatant
Type: cell-based
Conditions: for activity at 0.3 µM / activity at 1 µM / activity at 3 µM / activity at 10 µM / activity at 0.03 µM / activity at 0.1 µM: HEK293, 24 h; for activity at 0.3 µM: exposure 0.3 μmol/L; for activity at 1 µM: exposure 1 μmol/L; for activity at 3 µM: exposure 3 μmol/L; for activity at 10 µM: exposure 10 μmol/L; for activity at 0.03 µM: exposure 0.03 μmol/L; for activity at 0.1 µM: exposure 0.1 μmol/L; for inhibition at 0.3 µM / inhibition at 10 µM: HEK293, read-out: Aβ40 inhibitory rate (in terms of the inhibitory rate, from secretion rate); for inhibition at 0.3 µM: exposure concentration 0.3 μM; for inhibition at 10 µM: exposure concentration 10 μM
Text: HEK293 cells (ATCC) were transfected with APP C99 pcDNA3.1 (the nucleotide sequence of its coding region is shown in SEQ ID NO: 1) (J. Biol. Chem., 2003, 278, 49448-49458). Cell strains (C99 cells) confirmed to stably express APP-C99 (artificial APP fragment that originally lacked a polypeptide portion to be cleaved by α- or β-secretase at the first stage in the two-stage reaction of Aβ production from APP) were used to study the γ-secretase inhibitory effects of four test substances (TLVM-5, TLVM-7, TLVM-8, and TLVM-9) in vitro.
In the present test, a medium used for the C99 cells was 500 mL of a Dulbecco's Modified Eagle's Medium (DMEM, Sigma-Aldrich Corp.) supplemented with 55 ml of fetal bovine serum (Biosource), 5.5 ml of MEM non-essential amino acids (Gibco), and 5.5 ml of penicillin/streptomycin (Gibco).
The C99 cells were suspended at a concentration of 5×10^4 cells/ml in the medium. The suspension was added at a concentration of 1 ml (5×10^4 cells)/well to a 24-well collagen plate (Akita Sumitomo Bakelite Co., Ltd.) and cultured for 3 days. Then, the medium in the wells was removed, and the wells were washed with a medium (1 ml/well). The medium was removed, and a fresh medium was then added thereto at a concentration of 0.4 ml/well. The cells were exposed to the test substances and positive controls and incubated for 24 hours, and the culture supernatants were collected. The positive controls used were L-685,458 (CALBIOCHEM) and Boc-Leu-Val-Met-Leu-OMe (hereinafter, referred to as LVML-1) disclosed in Example 1 of Patent Document 1 (WO03/091278). The exposure concentrations were set to four concentrations, 0.3, 1, 3, and 10 μmol/L, for all the test substances and the positive controls. The concentrations of Aβ (1-40) and Aβ (1-42) in the culture supernatants were measured using Human Amyloid β (1-40) (N) Assay Kit (L)-IBL and Human Amyloid β (1-42) (N) Assay Kit (L)-IBL (Immuno-Biological Laboratories, Co., Ltd.). The amounts of Aβ (1-40) and Aβ (1-42) secreted were calculated by subtracting the concentrations of Aβ (1-40) and Aβ (1-42) originally contained in the medium before the C99 cell inoculation, from the measured concentrations thereof, respectively. Moreover, when the Aβ secretion rate of a negative control (5% DMSO-containing medium, resulting in 1% DMSO at the final concentration) is defined as 100%, Aβ secretion rates at each concentration of the test substances and the positive controls were calculated.
The TLVM-5, TLVM-7, TLVM-8, and TLVM-9 confirmed in Example 8 to have strong inhibitory activities against γ-secretase activities were subjected to an additional experiment at low concentrations (exposure concentrations were set to three concentrations, […], for the test substances and to four concentrations, 0.1, 0.3, 1, and 3 μmol/L, for the positive control).
Moreover, Aβ secretion rates at two concentrations of the test substance that bracket the concentration at which Aβ secretion was inhibited by 50% (IC50) were used to calculate IC50 according to the following equation: IC50:10^[LOG(A/B)*(50−C)/(D−C)+LOG(B)],wherein
A: of the two points that bracket 50% inhibition, the higher concentration of the test substance,
B: of the two points that bracket 50% inhibition, the lower concentration of the test substance,
C: secretion rate (%) at the concentration B, and
D: secretion rate (%) at the concentration A.

[1] = Example 8, 24 h, read-out: Aβ [(1-40) + (1-42)] secretion rate of C99 cells
[2] = Example 8, 24 h, read-out: Aβ (1-40) secretion rate of C99 cells
[3] = Example 9 (low concentrations), read-out: Aβ (1-40) secretion rate of C99 cells
[4] = Example 9, read-out: Aβ (1-42) secretion rate of C99 cells
[5] = Example 9, read-out: Aβ [(1-40) + (1-42)] secretion rate of C99 cells
[6] = Example 9, read-out: Aβ (1-40) secretion rate of C99 cells
[7] = Example 8, 24 h, negative control = 100%, read-out: Aβ (1-40) secretion rate of C99 cells
[8] = Example 8, 24 h, read-out: Aβ (1-42) secretion rate of C99 cells

Row | Compound | activity at 0.3 µM [1] [%] | activity at 1 µM [2] [%] | activity at 1 µM [1] [%] | activity at 3 µM [2] [%] | activity at 3 µM [1] [%] | activity at 10 µM [2] [%] | activity at 10 µM [1] [%] | activity at 0.03 µM [3] [%] | activity at 0.03 µM [4] [%] | activity at 0.03 µM [5] [%] | activity at 0.1 µM [6] [%] | activity at 0.1 µM [4] [%] | activity at 0.1 µM [5] [%] | activity at 0.3 µM [6] [%] | activity at 0.3 µM [4] [%] | activity at 0.3 µM [5] [%] | inhibition at 0.3 µM [%] | inhibition at 10 µM [%] | activity at 0.3 µM [8] [%] | activity at 1 µM [8] [%] | further results
1 | CSCCC(NC(=O)C(NC(=O)C(CC(C)C)CC(O)C(NC(=O)OC(C)(C)C)C(C)O)C(C)C)C(=O)NCc1ccccc1 [TLVM-5, [5S-(tert-butoxycarbonylamino)-4R,6R-dihydroxy-2R-(2-methylpropyl)heptanoyl]-L-valyl-L-methionine benzylamide] | 14 | 5 | 8 | 4 | 7 | ≤ 3 | 6 | 100 | 131 | 101 | 39 | 74 | 40 | 15 | 43 | 16 | ≥ 76 | ≥ 97 | – | – | –
2 | CCCCNC(=O)C(CCSC)NC(=O)C(NC(=O)C(CC(C)C)CC(O)C(NC(=O)OC(C)(C)C)C(C)O)C(C)C [TLVM-7, [5S-(tert-butoxycarbonylamino)-4R,6R-dihydroxy-2R-(2-methylpropyl)heptanoyl]-L-valyl-L-methionine n-butylamide] | 23 | 8 | 10 | 1 | 4 | ≤ 3 | 2 | 124 | 156 | 126 | 42 | 94 | 44 | 13 | 33 | 14 | ≥ 76 | ≥ 97 | 15 | 55 | activity at 0.3 µM [7]: ≤ 24%; activity at 3 µM [8]: 67%; activity at 10 µM [8]: 0%
3 | CSCCC(NC(=O)C(NC(=O)C(CC(C)C)CC(O)C(NC(=O)OC(C)(C)C)C(C)O)C(C)C)C(=O)NC(C)c1ccccc1 [TLVM-8, [5S-(tert-butoxycarbonylamino)-4R,6R-dihydroxy-2R-(2-methylpropyl)heptanoyl]-L-valyl-L-methionine (S)-α-methylbenzylamide] | 7 | 1 | 1 | 2 | 5 | – | 1 | 53 | 71 | 54 | 16 | 52 | 17 | 7 | 33 | 8 | ≥ 76 | ≥ 97 | 7 | 11 | activity at 3 µM [8]: 61%; activity at 10 µM [8]: 0%
4 | CSCCC(NC(=O)C(NC(=O)C(CC(C)C)CC(O)C(NC(=O)OC(C)(C)C)C(C)O)C(C)C)C(=O)NCc1ccc(F)cc1 [TLVM-9, [5S-(tert-butoxycarbonylamino)-4R,6R-dihydroxy-2R-(2-methylpropyl)heptanoyl]-L-valyl-L-methionine 4-fluorobenzylamide] | 15 | 8 | 8 | 5 | 7 | ≤ 3 | 3 | 94 | 97 | 94 | 32 | 67 | 33 | 17 | 49 | 18 | ≥ 76 | ≥ 97 | 2 | 11 | activity at 0.3 µM [7]: ≤ 24%; activity at 3 µM [8]: 37%; activity at 10 µM [8]: 0%
